The text below walks through data of patent US5591741A, “Fungicidal spiroheterocyclic derivatives” (American Cyanamid Company, priority 1993, dated 1997).

Assay [1] has as its system Plasmopara viticola. Put plainly: Antisporulant activity against vine downy mildew (PVA). Conditions: vine leaves, antisporulant foliar spray, 600 ppm, 750 l/ha. Type of assay: in vivo. As to the method:
(a) Antisporulant activity against vine downy mildew (Plasmopara viticola; PVA) The test is a direct antisporulant one using a foliar spray. The lower surfaces of leaves of whole vine plants (cv Cabernet Sauvignon), approximately 8 cm high, are inoculated by spraying with an aqueous suspension containing 5×10^4 zoosporangia/ml. The inoculated plants are kept for 24 hours at 21° C. in a high humidity compartment, then 24 hours at glasshouse ambient temperature and humidity. Infected leaves are sprayed on their lower surfaces with a solution of active material in 1:1 water/acetone containing 0.04% "TWEEN 20" (Trade Mark; a polyoxyethylene sorbitan ester surfactant). Plants are treated using an automated sprayline with an atomising nozzle. The concentration of the compound is 600 ppm, and the spray volume is 750 l/ha. After spraying, the plants are returned to normal glasshouse conditions for 96 hours and are then transferred to the high humidity compartment for 24 hours to induce sporulation. Assessment is based on the percentage of the leaf area covered by sporulation compared with that on control leaves. The extent of disease control in all the above tests is expressed as a rating compared with either an untreated control or a diluent-sprayed-control, according to the criteria: […]

Assay [2] concerns Alternaria solani. Put plainly: Activity against tomato early blight (AS). The assay is classed as in vivo. The settings on record: Table VI; tomato seedlings, contact prophylactic foliar spray, 4 days. As to the method: b) Activity against tomato early blight (Alternaria solani; AS) This test measures the contact prophylactic activity of test compounds applied as a foliar spray. Tomato seedlings (cv Outdoor Girl) are grown to the stage at which the second true leaf is expanded. The plants are treated using an automated sprayline as described under (a). Test compounds are applied as solutions or suspensions in a mixture of acetone and water (50:50 v/v) containing 0.04% surfactant ("TWEEN 20"--Trade Mark). After drying the plants are kept for 24 hours in a glasshouse at 20° C. and 40% R.H., followed by inoculation of the leaf upper surfaces with a suspension of A. solani conidia containing 10^4 spores/ml. For 4 days after inoculation plants are kept moist in a humidity compartment at 21° C. Disease is assessed 4 days after inoculation, based on the percentage of leaf surface area covered by lesions when compared with control plants. The extent of disease control in all the above tests is expressed as a rating compared with either an untreated control or a diluent-sprayed-control, according to the criteria: […]

In assay [3] the test system is Botrytis cinerea. Put plainly: Direct protectant activity against broad bean grey mould (BCB). The assay is classed as in vivo. The settings on record: direct protectant foliar spray, 600 ppm, 4 days. As to the method: (c) Direct protectant activity against broad bean grey mould (Botrytis cinerea; BCB) The test is a direct protectant foliar spray. The upper surfaces of leaves of broad bean plants with two leaf pairs (cv The Sutton) are sprayed with the test compound at a dosage of 600 ppm using an automated sprayline as described under (a). 24 hours after spraying the leaves are inoculated with an aqueous suspension containing 10^6 conidia/ml. For 4 days after inoculation plants are kept in a high humidity compartment at 22° C. Disease is assessed 4 days after inoculation, based on the percentage of leaf surface area covered by lesions. The extent of disease control in all the above tests is expressed as a rating compared with either an untreated control or a diluent-sprayed-control, according to the criteria: […]

Assay [4] deals with Leptosphaeria nodorum. Put plainly: Activity against wheat leafspot (LN). Type of assay: in vivo. The settings on record: direct therapeutic foliar spray, 600 ppm, 6-8 days. As for the experimental part: (d) Activity against wheat leafspot (Leptosphaeria nodorum; LN.) The test is a direct therapeutic foliar spray. Leaves of wheat plants (cv Norman), at the single leaf stage, are inoculated by spraying with an aqueous suspension containing 1.5×10^6 conidia/ml. The inoculated plants are kept for 24 hours in a high humidity compartment prior to treatment. The plants are sprayed with a solution of the test compound at a dosage of 600 ppm using an automated sprayline as described under (a). After drying, the plants are kept for 6-8 days at 22° C. and moderate humidity (70%). Assessment is based on the density of lesions per leaf compared with that on leaves of control plants. The extent of disease control in all the above tests is expressed as a rating compared with either an untreated control or a diluent-sprayed-control, according to the criteria: […]

The test system of assay [5] is Erysiphe graminis f.sp. hordei. As to the kind of experiment: Activity against barley powdery mildew, direct therapeutic (EGT). Type of assay: in vivo. The settings on record: direct therapeutic foliar spray, 600 ppm, up to 7 days. As for the experimental part:
(e) Activity against barley powdery mildew (Erysiphe graminis f.sp. hordei; EGT) The test is a direct therapeutic foliar spray. Leaves of barley seedlings, (cv. Golden Promise) at the single leaf stage are inoculated by dusting with mildew conidia one day prior to treatment with the test compound. The inoculated plants are kept overnight at glasshouse ambient temperature (18° C.) and humidity (40%) prior to treatment. The plants are sprayed with the test compound at a dosage of 600 ppm using an automated sprayline as described under (a). After drying, plants are returned to a compartment at 18° C. and 40% humidity for up to 7 days. Assessment is based on the percentage of leaf area covered by sporulation compared with that on leaves of control plants. The extent of disease control in all the above tests is expressed as a rating compared with either an untreated control or a diluent-sprayed-control, according to the criteria: […]

In assay [6] the test system is Erysiphe graminis f.sp. hordei. Put plainly: Direct protectant activity against barley powdery mildew (EGP). The assay is classed as in vivo. Conditions: direct protectant foliar spray, 8 days. As for the experimental part: (f) Direct protectant activity against barley powdery mildew (Erysiphe graminis f.sp. hordei; EGP) The test is a direct protectant foliar spray. Leaves of barley seedlings (cv Golden Promise) at the single leaf stage are sprayed with the test compound as described under (a). After drying, the plants are kept for 24 hours in a glasshouse at 18° C. and 40% R.H. Then the plants are inoculated by dusting with mildew conidia and kept at 18° C. and 40% R.H. for 8 days. Assessment is based on the percentage of leaf area covered by sporulation compared with that on leaves of control plants. The extent of disease control in all the above tests is expressed as a rating compared with either an untreated control or a diluent-sprayed-control, according to the criteria: […]

Assay [7] concerns Phytophthora infestans. The assay is classed as in vivo. Conditions: tomato, direct protectant foliar spray.
The subject of assay [8] is Pseudocercosporella herpotrichoides. Put plainly: Activity against wheat eyespot in-vitro (PHI). The settings on record: 10 ppm, 10 days, 20° C., mycelial growth. The assay is classed as cell-based. As for the experimental part:
(h) Activity against wheat eyespot in-vitro (Pseudocercosporella herpotrichoides; pHI) This test measures the in vitro activity of compounds against the fungus causing wheat eyespot. The test compound is dissolved or suspended in acetone and is added into 4 ml aliquots of half strength Potato Dextrose Broth (PDB) dispended in 25-compartment petri dishes to give a final concentration of 10ppm. The fungal inoculum consists of mycelial fragments of P. herpotrichoides grown in half strength PDB in shaken flasks and added to the broth to provide 5×10^4 fragments/ml broth. Petri dishes are incubated at 20° C. for 10 days until the assessment of mycelial growth. The extent of disease control in all the above tests is expressed as a rating compared with either an untreated control or a diluent-sprayed-control, according to the criteria: […]

Assay [9] concerns Rhizoctonia solani. As to the kind of experiment: Activity against Rhizoctonia in-vitro (RSI). Type of assay: cell-based. Conditions: 10 ppm, 10 days, 20° C., mycelial growth. As for the experimental part:
(i) Activity against Rhizoctonia in-vitro (Rhizoctonia solani: RSI) This test measures the in-vitro activity of compounds against R. solani that causes stem and root rots. The test compound in acetone is added into 4 ml aliquots of half strength Potato Dextrose Broth dispensed in 25-compartment petri dishes to give final concentrations of 10 ppm. The fungal inoculum consists of mycelial fragments of R. solani growth in half strength PDB in shaken culture flasks and added to the broth to provide 5×10^4 fragments/ml broth. Petri dishes are incubated at 20° C. for 10 days until the assessment of mycelial growth. The extent of disease control in all the above tests is expressed as a rating compared with either an untreated control or a diluent-sprayed-control, according to the criteria: […]

The test system of assay [10] is Venturia inaequalis. Put plainly: Activity against apple scab in-vitro (VII). Type of assay: cell-based. Conditions: 10 ppm, 10 days, 20° C., mycelial growth. As for the experimental part: (j) Activity against apple scab in-vitro (Venturia inaequalis: VII) This test measures the in-vitro activity of compounds against V. inaequalis that causes apple scab. The test compound in acetone is added into 4 ml aliquots of half strength Potato Dextrose Broth dispensed in 25-compartment petri dishes to give final concentrations of 10 ppm. The fungal inoculum consists of mycelial fragments and spores of V. inaequalis grown on malt agar and added to the broth to provide 5×10^4 propagules/ml broth. Petri dishes are incubated at 20° C. for 10 days until the assessment of mycelial growth. The extent of disease control in all the above tests is expressed as a rating compared with either an untreated control or a diluent-sprayed-control, according to the criteria: […]

Assay [11] relates to Pyricularia oryzae. The assay is classed as in vivo. The settings on record: rice seedlings, direct therapeutic foliar spray, 600 ppm, 4-5 days.

Consider `CC(C)(C)C1CCC2(CC1)CC(O)(CNC1CCCCC1)CO2` (single isomer, unassigned) [Compound 213, 8-t-Butyl-3-cyclohexylaminomethyl-3-hydroxy-1-oxaspiro-(4,5)decane], for which the “disease control rating PVA” value in assay [1] was 0 (less than 50% disease control). In addition, in assay [2], the “disease control rating AS” value is recorded as 2 (greater than 80% disease control). Also, the “disease control rating BCB” value in assay [3] was 2 (greater than 80% disease control). Also, the “disease control rating LN” value in assay [4] is listed as 0 (less than 50% disease control). Besides, the “disease control rating EGT” value in assay [5] is on record as 2 (greater than 80% disease control). For the same compound, the “disease control rating EGP” value in assay [6] was 2 (greater than 80% disease control). In addition, the “disease control rating PIP” value in assay [7] is 2 (greater than 80% disease control). Also, the “disease control rating PHI” value in assay [8] was 0 (less than 50% disease control). For the same compound, the “disease control rating RSI” value in [9] is 0 (less than 50% disease control). For the same compound, the “disease control rating VII” value in [10] is 0 (less than 50% disease control). In addition, in assay [11], the “disease control rating PO” value was 1 (about 50-80% disease control).

On to `CC(C)(C)C1CCC2(CC1)CC(N1CCC(c3ccccc3)CC1)CO2` (centres unmarked) [Compound 4], for which the “disease control rating PVA” value in assay [1] is given as 0 (less than 50% disease control). The “disease control rating AS” value in assay [2] is 0 (less than 50% disease control). In addition, the “disease control rating BCB” value in assay [3] was 0 (less than 50% disease control). Moreover, in [4], the “disease control rating LN” value is reported as 1 (about 50-80% disease control). Further, the “disease control rating EGT” value in [5] is recorded as 2 (greater than 80% disease control). The “disease control rating EGP” value in assay [6] is listed as 2 (greater than 80% disease control). Also, in [7], the “disease control rating PIP” value is on record as 0 (less than 50% disease control). For the same compound, the “disease control rating PHI” value in assay [8] is listed as 1 (about 50-80% disease control). Besides, the “disease control rating RSI” value in assay [9] is on record as 0 (less than 50% disease control). In addition, the “disease control rating VII” value in assay [10] is reported as 1 (about 50-80% disease control). Also, the “disease control rating PO” value in assay [11] is 0 (less than 50% disease control).

Turning to `CCCCCCCNC1COC2(CCC(C(C)(C)C)CC2)C1` (centres unmarked) [Compound 5], the “disease control rating PVA” value in assay [1] is recorded as 0 (less than 50% disease control). Besides, the “disease control rating AS” value in assay [2] is on record as 0 (less than 50% disease control). For the same compound, the “disease control rating BCB” value in assay [3] is 1 (about 50-80% disease control). The “disease control rating LN” value in assay [4] was 0 (less than 50% disease control). Moreover, the “disease control rating EGT” value in assay [5] is listed as 2 (greater than 80% disease control). The “disease control rating EGP” value in assay [6] is 2 (greater than 80% disease control). The “disease control rating PIP” value in assay [7] was 0 (less than 50% disease control). Besides, the “disease control rating PHI” value in assay [8] was 0 (less than 50% disease control). The “disease control rating RSI” value in assay [9] was 1 (about 50-80% disease control). For the same compound, the “disease control rating VII” value in [10] is 0 (less than 50% disease control). Further, the “disease control rating PO” value in [11] is 0 (less than 50% disease control).

As to `CC(C)(C)C1CCC2(CC1)CC(N1CCC3CCCCC3C1)CO2` (centres unmarked) [Compound 6], the “disease control rating PVA” value in assay [1] is recorded as 0 (less than 50% disease control). Further, in [2], the “disease control rating AS” value is reported as 0 (less than 50% disease control). Moreover, the “disease control rating BCB” value in [3] was 1 (about 50-80% disease control). Besides, the “disease control rating LN” value in [4] is on record as 0 (less than 50% disease control). The “disease control rating EGT” value in assay [5] was 2 (greater than 80% disease control). Besides, the “disease control rating EGP” value in [6] is 2 (greater than 80% disease control). The “disease control rating PIP” value in assay [7] was 0 (less than 50% disease control). The “disease control rating PHI” value in assay [8] is given as 0 (less than 50% disease control). For the same compound, the “disease control rating RSI” value in [9] is recorded as 1 (about 50-80% disease control). Also, the “disease control rating VII” value in [10] is reported as 1 (about 50-80% disease control). The “disease control rating PO” value in assay [11] is 0 (less than 50% disease control).
